{"source": "patent US20200239962A1", "about": "“COMPOSITIONS AND METHODS FOR DETECTING A NEOPLASIA” (The Johns Hopkins University, priority 2010, published 2020)", "system": "BNC1 and ADAMTS1 gene expression in pancreatic cancer cell lines (Panc1, MIA-PaCa2, Capan1, PL45)", "test": "Quantitative RT-PCR re-expression of silenced BNC1 and ADAMTS1 after drug treatment", "format": "cell-based, human", "conditions": "5 uM DAC or 300 nM TSA, relative to mock-treated cells; TSA result excepts PL45", "experimental": "FIGS. 2A, 2B, and 2C depict promoter methylation gels and corresponding bar graphs, a CpG methylation diagram, and a schematic depicting methylation-on-bead (MOB) technology, respectively. […] M=methylation signal; U=unmethylated signal. IVD=in vitro methylated DNA. Real-time RT-PCR expression is shown as fold change ±SE relative to mock-treated cells during 5 uM 5-Aza-deoxycitidine (DAC) and 300 nM Trichostatin A (TSA) treatments. […] The BNC1 promoter regions is depicted as a line, with CpG regions designated as vertical slashes. TIS indicates the transcriptional start site. Location of CpG sites (bisulfite priners (BST): upstream region from −331 to +36 relative to transcriptional start site). […] Samples are analyzed using MS-qFRET or gel electrophoresis.\nThis genome-wide DNA hypermethylome screening is based on a pharmacological approach using 5-deoxy-azacytidineand TSA, which has shown an excellent correlation between promoter DNA methylation and inhibition of gene expression and re-expression after treatment with a DNA demethylating drug, such as 5-deoxy-azacytidine, in prior studies on breast and colorectal cancer. Here, promoter methylation of BNC1 and ADAMTS1 was tested, and correlated with a lack of gene expression in pancreatic cancer cell lines (Panc1, MIA-PaCa2, Capan1, and PL45) using quantitative RT-PCR (qRT-PCR) (FIG. 2A, upper panel). […]", "data": [{"smiles": "Nc1ncn([C@H]2C[C@H](O)[C@@H](CO)O2)c(=O)n1", "note": "[5-deoxy-azacytidine]", "values": [{"measurement": "re-expression of BNC1 and ADAMTS1 (qRT-PCR)", "result": "significant re-expression"}]}, {"smiles": "CC(/C=C/C(=O)NO)=C\\[C@@H](C)C(=O)c1ccc(N(C)C)cc1", "note": "[TSA, Trichostatin A]", "values": [{"measurement": "re-expression of BNC1 and ADAMTS1 (qRT-PCR)", "result": "minimal re-expression"}]}]}
